How the values were obtained:
[1] = Inhibition of human c-SRC expressed in mouse NIH/3T3 cells assessed as inhibition of cell growth in presence of 1.5% FCS by BrdU incorporation assay
[2] = Inhibition of human c-SRC expressed in mouse NIH/3T3 cells assessed as inhibition of cell growth in presence of 0.5% FCS

| Structure (SMILES) | IC50 [1] [nM] | IC50 [2] [nM] |
| --- | --- | --- |
| O=C(Cc1ccc(-c2ccccc2)cn1)NCc1cccc(F)c1 | 269 | – |
| O=C(Cc1ccc(-c2ccc(OCCN3CCOCC3)cc2)cn1)NCc1cccc(F)c1 | 118 | – |
| O=C(Cc1ccc(-c2ccccc2)cc1)NCc1cccc(F)c1 | 349 | – |
| O=C(Cc1ccc(-c2ccc(OCCN3CCOCC3)cc2)cn1)NCc1ccccc1 [N-benzyl-2-(5-(4-(2-morpholinoethoxy)phenyl)pyridin-2-yl)acetamide] | 13 | 6.5 |
